The values below come from patent US20230104936A1, “TRPML MODULATORS” (Casma Therapeutics, Inc., priority 2019, published 2023).

In general, AC50 refers to the concentration at which the activity in the assay is half-maximal.

This experiment has as its system TFEB. Description: TFEB nuclear translocation assay, HeLa wt cells. Format: cell-based. To be noted: Homo sapiens, HeLa, 2 h, 2 hrs compound treatment, Table 1 does not say HeLa wt or TRPML1 KO. In outline:
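HeLa wt cells were treated with compound for 2 hrs at 37° C, then fixed in 4% PFA and immunostained for TFEB with an Alexa 488 secondary and Hoechst nuclear counterstain. Automated epifluorescence imaging at ×20 gave the ratio of nuclear TFEB intensity to a perinuclear ring region, from which AC50 was derived.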
`CC(C)(C)S(=O)(=O)c1ccc(S(=O)(=O)Nc2ccccc2N2CCC(c3c(F)cccc3F)CC2)cc1` [Compound A-213, N-{2-[4-(2,6-difluorophenyl)piperidin-1-yl]phenyl}-4-(2-methylpropane-2-sulfonyl)benzene-1-sulfonamide] gave an AC50 of at most 2000 nM. For `CN(C)S(=O)(=O)c1ccc(S(=O)(=O)Cc2ccccc2N2CCC(c3ccc(Cl)cc3F)CC2)cc1` [Compound A-214, 4-((2-(4-(4-chloro-2-fluorophenyl)piperidin-1-yl)benzyl)sulfonyl)-N,N-dimethylbenzenesulfonamide], the half-maximal activity concentration (AC50) was at most 2000 nM. The molecule `CN1CC2(CCN(c3ccccc3NS(=O)(=O)c3ccc(S(=O)(=O)N(C)C)cc3)CC2)c2ccc(F)cc21` [Compound A-215, N4-(2-{6-fluoro-1-methyl-1,2-dihydrospiro[indole-3,4′-piperidin]-1′-yl}phenyl)-N1,N1-dimethylbenzene-1,4-disulfonamide] gave a concentration at half-maximal activity (AC50) of at most 2000 nM. In the case of `CNC(=O)C1(c2ccc(F)cc2F)CCN(c2ccccc2NS(=O)(=O)c2ccc(S(=O)(=O)N(C)C)cc2)CC1` [Compound A-216, 4-(2,4-difluorophenyl)-1-{2-[4-(dimethylsulfamoyl)benzenesulfonamido]phenyl}-N-methylpiperidine-4-carboxamide], the AC50 was at most 2000 nM. Next, `O=S(=O)(Nc1ccccc1N1CCC(c2c(F)cccc2F)CC1)c1ccc(S(=O)(=O)N2CCOCC2)cc1` [Compound A-217, N-{2-[4-(2,6-difluorophenyl)piperidin-1-yl]phenyl}-4-(morpholine-4-sulfonyl)benzene-1-sulfonamide]: at most 2000 nM; `CNCC1(c2ccc(F)cc2F)CCN(c2ccccc2NS(=O)(=O)c2ccc(S(=O)(=O)N(C)C)cc2)CC1` [Compound A-218, N4-{2-[4-(2,4-difluorophenyl)-4-[(methylamino)methyl]piperidin-1-yl]phenyl}-N1,N1-dimethylbenzene-1,4-disulfonamide]: at most 2000 nM; `COc1ccc(S(=O)(=O)Nc2ccccc2N2CC(Cc3ccc(F)cc3F)C2)cc1` [Compound A-219, N-(2-{3-[(2,4-difluorophenyl)methyl]azetidin-1-yl}phenyl)-4-methoxybenzene-1-sulfonamide]: at least 10000 nM. In turn, `CN1CCN(S(=O)(=O)c2ccc(S(=O)(=O)Nc3ccccc3N3CCC(c4c(F)cccc4F)CC3)cc2)CC1` [Compound A-220, N-{2-[4-(2,6-difluorophenyl)piperidin-1-yl]phenyl}-4-[(4-methylpiperazin-1-yl)sulfonyl]benzene-1-sulfonamide] had a concentration at half-maximal activity (AC50) of at least 10000 nM. As for `CN(C)CC1(c2ccc(F)cc2F)CCN(c2ccccc2NS(=O)(=O)c2ccc(S(=O)(=O)N(C)C)cc2)CC1` [Compound A-221, N4-{2-[4-(2,4-difluorophenyl)-4-[(dimethylamino)methyl]piperidin-1-yl]phenyl}-N1,N1-dimethylbenzene-1,4-disulfonamide], the figure is at most 2000 nM. In turn, `CN(C)C(c1ccc(S(=O)(=O)Nc2ccccc2N2CCC(c3ccc(Cl)cc3F)CC2)cc1)C(F)(F)F` (stereo not shown) [Compound A-222, N-{2-[4-(4-chloro-2-fluorophenyl)piperidin-1-yl]phenyl}-4-[1-(dimethylamino)-2,2,2-trifluoroethyl]benzene-1-sulfonamide] had an AC50 of at most 2000 nM. For `CN(CCO)S(=O)(=O)c1ccc(S(=O)(=O)Nc2ccccc2N2CCC(c3c(F)cccc3F)CC2)cc1` [Compound A-223, N4-{2-[4-(2,6-difluorophenyl)piperidin-1-yl]phenyl}-N1-(2-hydroxyethyl)-N1-methylbenzene-1,4-disulfonamide], the AC50 lay in the range of 2010 to 8000 nM. In turn, `CN(CC(C)(C)O)S(=O)(=O)c1ccc(S(=O)(=O)Nc2ccccc2N2CCC(c3c(F)cccc3F)CC2)cc1` [Compound A-224, N4-{2-[4-(2,6-difluorophenyl)piperidin-1-yl]phenyl}-N1-(2-hydroxy-2-methylpropyl)-N1-methylbenzene-1,4-disulfonamide] returned an AC50 of at least 10000 nM. Take `CN(C)S(=O)(=O)c1ccc(S(=O)(=O)Nc2ccccc2N2CCN(C(=O)C(C)(C)C)CC2)cc1` [Compound A-225, N4-{2-[4-(2,2-dimethylpropanoyl)piperazin-1-yl]phenyl}-N1,N1-dimethylbenzene-1,4-disulfonamide]: the AC50 was in the range of 2010 to 8000 nM. As for `CN(C)S(=N)(=O)c1ccc(S(=O)(=O)Nc2ccc(F)cc2N2CCC(c3c(F)cccc3F)CC2)cc1` (stereo not shown) [Compound A-226, 4-({2-[4-(2,6-difluorophenyl)piperidin-1-yl]-4-fluorophenyl}sulfamoyl)-N,N-dimethylbenzene-1-sulfonoimidamide], the figure is at most 2000 nM. `C=CP(=O)(C=C)c1ccccc1NS(=O)(=O)c1ccc(S(=O)(=O)N(C)C)cc1` [Compound A-227, N1-(2-(divinylphosphoryl)phenyl)-N4,N4-dimethylbenzene-1,4-disulfonamide] showed a half-maximal activity concentration (AC50) of at least 10000 nM. As for `CN(C)S(=N)(=O)c1ccc(S(=O)(=O)Nc2cc(F)ccc2N2CCC(c3c(F)cccc3F)CC2)cc1` (stereo not shown) [Compound A-228, 4-({2-[4-(2,6-difluorophenyl)piperidin-1-yl]-5-fluorophenyl}sulfamoyl)-N,N-dimethylbenzene-1-sulfonoimidamide], the figure is at most 2000 nM. Next, `CN(C)S(=O)(=O)c1ccc(S(=O)(=O)Cc2ccccc2N2CCC(c3c(F)cccc3F)CC2)cc1` [Compound A-229, 4-((2-(4-(2,6-difluorophenyl)piperidin-1-yl)benzyl)sulfonyl)-N,N-dimethylbenzenesulfonamide]: at most 2000 nM; `CN(C)CC1(c2ccc(F)cc2)CCN(c2ccccc2NS(=O)(=O)c2ccc(S(=O)(=O)N(C)C)cc2)CC1` [Compound A-231, N4-(2-{4-[(dimethylamino)methyl]-4-(4-fluorophenyl)piperidin-1-yl}phenyl)-N1,N1-dimethylbenzene-1,4-disulfonamide]: at most 2000 nM; `CN(C)S(=O)(=O)c1ccc(S(=O)(=O)Nc2ccccc2N2CCP(=O)(c3ccc(F)cc3)CC2)cc1` [Compound A-232, N4-{2-[4-(4-fluorophenyl)-4-oxo-1,4λ^5-azaphosphinan-1-yl]phenyl}-N1,N1-dimethylbenzene-1,4-disulfonamide]: at least 10000 nM. In turn, `CN(C)S(=O)(=O)c1ccc(NC(c2ccccc2N2CCC(c3ccc(Cl)cc3F)CC2)C(F)(F)F)cc1` (stereo not shown) [Compound A-241, 4-((1-(2-(4-(4-chloro-2-fluorophenyl)piperidin-1-yl)phenyl)-2,2,2-trifluoroethyl)amino)-N,N-dimethylbenzenesulfonamide] gave an AC50 of at least 10000 nM.

Molecule `CN1CC2(CCN(c3ccccc3N(C)S(=O)(=O)c3ccc(S(=O)(=O)N(C)C)cc3)CC2)c2ccc(F)cc21` [Compound A-243, N1-(2-{6-fluoro-1-methyl-1,2-dihydrospiro[indole-3,4′-piperidin]-1′-yl}phenyl)-N1,N4,N4-trimethylbenzene-1,4-disulfonamide] displayed an AC50 of at most 2000 nM. Turning to `CN1CCC2(CCN(c3ccccc3NS(=O)(=O)c3ccc(S(=O)(=O)N(C)C)cc3)CC2)C1=O` [Compound A-244, N1,N1-dimethyl-N4-(2-{2-methyl-1-oxo-2,8-diazaspiro[4.5]decan-8-yl}phenyl)benzene-1,4-disulfonamide], the half-maximal activity concentration (AC50) was at least 10000 nM.
